Test results published in patent US10787695B2, “Systems and methods for rapidly sensing microbial metabolism” (General Electric Company, priority 2017, dated 2020).

Tested on: bacteria
Assay: bacteria growth within chambers of a bacteria culture array with or without ampicillin (FIG. 33)
Format: cell-based
Conditions: chambers that included ampicillin vs chambers without ampicillin; FIG. 33, graph 168
Text: Furthermore, the bacteria culture arrays of the present disclosure may be used to assess the effect of drugs on bacteria samples. For instance, single cells of bacteria may be added the chambers of a bacteria culture array, and drugs and/or antimicrobial agents may be added to some or all of the chambers. In other words, single cell bacteria activity may be used to conduct population-based analysis of bacteria samples. With this in mind, FIG. 33 is a graph 168 showing bacteria growth within chambers of a bacteria culture array.
Visual confirmation of the results shown in the graph 168 were also obtained. FIG. 34 is images […] of the chambers of the bacteria culture array.

SMILES: CC1(C)S[C@@H]2[C@H](NC(=O)[C@H](N)c3ccccc3)C(=O)N2[C@H]1C(=O)O [ampicillin]
- bacteria growth within chambers of a bacteria culture array: hindrance to growth
